Measurements published in patent US20110268789A1, “USE OF PITUITARY ADENYLATE CYCLASE-ACTIVATING POLYPEPTIDE (PACAP) AND PACAP ANALOGS AS ADJUNCTIVE TREATMENTS WITH ANTICANCER AGENTS” (priority 2008, published 2011).

What was measured:
[1] = test system: Male C57BL/6 mice; assay: Cisplatin-induced nephrotoxicity in mice; type: in vivo, mouse; conditions: cisplatin 20 mg/kg i.p., FIG. 10
Protocol: (§1) Male C57BL/6 mice were given a single intraperitoneal injection of 20 mg/kg of cisplatin. Twenty nanomoles of PACAP38 were given intraperitoneally 1 hour before the injection of cisplatin and additional doses were given at 24 and 48 hours after the initial dose. The control group of mice was injected intraperitoneally with the same volume of saline as for the injections of cisplatin and PACAP38 on the same schedule. The mice were euthanized 24 hours after the final injection of PACAP38. Each value represents the mean plus/minus the standard error of four determinations. ***p<0.001 and **p<0.01 compared to the group treated only with cisplatin.
as §1, with “PACAP38. TNF-α was extracted from one kidney of each mouse and quantified with an enzyme-linked immunosorbent assay.” for “PACAP38.”
Male C57BL/6 mice were given a single intraperitoneal injection of 20 mg/kg of cisplatin. Twenty nanomoles of PACAP38 were given intraperitoneally 1 hour before the injection of cisplatin and additional doses were given at 24 and 48 hours after the initial dose. The control group of mice were injected intraperitoneally with the same volume of saline as for the injections of cisplatin and PACAP38 on the same schedule. The mice were euthanized 24 hours after the final injection of PACAP38, and the kidneys were removed and fixed in 10% formalin. The fixed sections were stained with hematoxylin and eosin. The sections of the kidneys from control mice show intact renal tubular epithelial cells and well-preserved brush border membranes. The kidneys from mice treated with cisplatin had extensive tubular damage, tubular dilations, intratubular debris, and intratubular casts. […] Tubular damage was more pronounced in the outer cortex in the cisplatin treated mice. The photomicrographs on the left side were made at a lower magnification (×160) than the photomicrographs on the right side (×320). The results described in FIGS. 5, 6, 7, and 8 were from the same experiment.
as §1, with “six” for “four”
as §1, with “The cytoprotective effect of PACAP38 against cisplatin-induced nephrotoxicity was also seen in a common in vivo model. Male” for “Male”, “PACAP38.” for “PACAP38. Each value represents the mean plus/minus the standard error of four determinations. ***p<0.001 and **p<0.01 compared to the group treated only with cisplatin.”

[2] = test system: human erythroleukemia cells; assay: Thalidomide-induced apoptotic cell death of erythroleukemia cells; type: cell-based; conditions: thalidomide 48 hours, FIG. 20
Protocol: The human myeloid leukemia cells were cultured in RPMI 1640 medium supplemented with 10% non-inactivated fetal bovine serum. The effects of PACAP38, [D-Ser^2]PACAP38 and VIP on apoptotic cell death was assessed by the quantitative determination of cytoplasmic histone-associated DNA-fragmentation (mono- and oligonucleosomes) after exposure to thalidomide for 48 hours. Each value represents the mean plus/minus the standard deviation of four determinations. **p<0.01 and *p<0.05 compared to the thalidomide-treated (control) cells.

[3] = molecular target: T1, PAC1 receptor (Homo sapiens, UniProt P41586); conditions: cited from earlier work
T1 sequence (P41586 21-468): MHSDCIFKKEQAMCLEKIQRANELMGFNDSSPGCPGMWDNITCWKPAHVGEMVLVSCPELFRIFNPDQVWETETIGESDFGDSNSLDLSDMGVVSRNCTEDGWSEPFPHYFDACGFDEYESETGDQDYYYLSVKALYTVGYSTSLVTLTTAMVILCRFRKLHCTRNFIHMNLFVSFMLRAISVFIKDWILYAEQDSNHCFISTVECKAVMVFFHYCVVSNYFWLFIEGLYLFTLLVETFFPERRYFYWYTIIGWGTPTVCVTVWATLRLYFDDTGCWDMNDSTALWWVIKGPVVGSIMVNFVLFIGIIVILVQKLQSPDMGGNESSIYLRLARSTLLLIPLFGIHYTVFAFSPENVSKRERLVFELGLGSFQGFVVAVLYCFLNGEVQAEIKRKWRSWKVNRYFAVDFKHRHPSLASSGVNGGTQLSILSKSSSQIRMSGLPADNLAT

## VIP
[1]
  relative potency as cytoprotectants against cisplatin-induced impairment of kidney function (serum creatinine): less potent
[2]
  effect on thalidomide-induced apoptotic cell death: dose-dependent enhancement
[3]
  affinity for the PAC1 receptor relative to PACAP: 1,000 times less
